Results published in US10543183B2, “Treatment and diagnosis of melanoma” (The Rockefeller University, priority 2012, dated 2020).
Counter-ions that a name gives are not always drawn.

Assays:
[1] = system: human melanoma cells (MeWo, MeWo-LM2, HT-144, SK-Mel-2, SK-Mel-334.2); assay: trans-well matrigel cell invasion assay, melanoma cells; format: cell-based; conditions: for ability of melanoma cells to invade through matrigel: MeWo, HT-144, SK-Mel-2, SK-Mel-334.2, 1 μM for 72 hours
Protocol: Cancer cells were serum-starved in 0.2% FBS DMEM-based media for 12 hours. Trans-well invasion chambers (354480, BD Biosciences, Bedford, Mass.) were pre-equilibrated prior to beginning the assay by adding 0.5 mL of starvation media to the top and bottom chambers. After 30 minutes, the media in the top chamber was removed, and 0.5 mL of media containing 1×10^5 cancer cells was added into each matrigel-coated trans-well insert and incubated at 37° C. for 24 hours. For neutralization antibody and/or recombinant protein experiments, antibody/recombinant protein was added to each well at the start of the assay at the following concentrations as indicated in the figures: 5-40 μg/mL anti-ApoE 1D7 (Heart Institute, University of Ottawa), 5-40 μg/mL anti-IgG (AB-108-C, R&D Systems, Minneapolis, Minn.), 100 μM recombinant human ApoE3 (4696, BioVision, Mountain View, Calif.), and 100 μM BSA (A2153, Sigma-Aldrich). Upon completion of the assay, matrigel-coated inserts were washed with PBS, the cells at the top side of each insert were scraped off, and the inserts were fixed in 4% paraformaldehyde for 15 minutes. The inserts were then cut out and mounted onto slides using VectaShield mounting medium containing DAPI (H-1000, Vector Laboratories, Burlingame, Calif.). The basal side of each insert was imaged using an inverted fluorescence microscope (Zeiss Axiovert 40 CFL) at 5× magnification, taking three representative images for each insert. The number of invaded cells was quantified using ImageJ (NIH).
The cell invasion assay was performed as previously described in detail (Pencheva et al., 2012) using a trans-well matrigel invasion chamber system (354480, BD Biosciences). In brief, various melanoma cells were cultured in the presence of DMSO, GW3965, T0901317, or Bexarotene at 1 μM for 56 hours, after which melanoma cells were switched to starvation media (0.2% FBS) for 16 hours in the presence of each drug. Following starvation, cells were seeded into matrigel-coated trans-well inserts, and the invasion assay was allowed to proceed for 24 hours at 37° C. For ApoE antibody neutralization experiments, 40 μg/mL 1D7 anti-ApoE blocking antibody (Heart Institute, University of Ottawa, Ottawa, Canada) or 40 μg/mL anti-IgG control antibody (AB-108-C, R&D Systems, Minneapolis, Minn.) was added to each trans-well insert at the start of the assay.
The cells were then serum starved for 16 hours in 0.2% FBS media in the presence of each corresponding drug or DMSO. Following serum starvation, the cells were subjected to the trans-well invasion assay using a matrigel invasion chamber system (354480, BD Biosciences). Invasion chambers were pre-equilibrated prior to the assay by adding 0.5 mL of starvation media to the top and bottom wells. Meanwhile, cancer cells were trypsinized and viable cells were counted using trypan blue. Cancer cells were then resuspended at a concentration of 2×10^5 cells/1 mL starvation media, and 0.5 mL of cell suspension, containing 1×10^5 cells, was seeded into each trans-well. The invasion assay was allowed to proceed for 24 hours at 37° C. […] Following fixation, the inserts were washed in PBS, cut out, and mounted onto slides using VectaShield mounting medium containing DAPI nuclear stain (H-1000, Vector Laboratories). The basal side of each insert was imaged using an inverted fluorescence microscope (Zeiss Axiovert 40 CFL) at 5× magnification, and the number of DAPI-positive cells was quantified using ImageJ.

[2] = system: endothelial cells (HUVEC) recruited by human melanoma cells; assay: trans-well endothelial recruitment assay; format: cell-based; conditions: for ability of melanoma cells to recruit endothelial cells: MeWo, HT-144, SK-Mel-2, SK-Mel-334.2, 1 μM for 72 hours
Protocol: 5×10^4 cancer cells were seeded into 24-well plates approximately 24 hours prior to the start of the assay. HUVEC's were grown to 80% confluency and serum starved in EGM-2 media supplemented with 0.2% FBS for 16 hours. HUVEC's were then pulsed with Cell Tracker Red CMTPX dye (C34552, Invitrogen) for 45 minutes. Meanwhile, cancer cells were washed with PBS, 0.5 mL of 0.2% FBS EGM-2 media was added to each well, and a 3.0 μm HTS Fluoroblock insert (351151, BD Falcon, San Jose, Calif.) was placed into each well. 1×10^5 HUVEC's, resuspended in 0.5 mL of starvation media, were seeded into each trans-well insert, and the recruitment assay was allowed to proceed for 16-18 hours at 37° C. For neutralization antibody and/or recombinant protein experiments, antibody/protein was then added to each well at the appropriate concentration as indicated in the figures: 40 μg/mL anti-ApoE 1D7, 40 μg/mL anti-IgG, 100 μM rhApoE3, and 100 μM BSA. Upon completion of the assay, the inserts were processed and analyzed as described for the matrigel invasion assay above (See Matrigel Invasion Assay).
The endothelial recruitment assay was carried out as previously described (Pencheva et al., 2012; Png et al., 2012). Melanoma cells were treated with DMSO, GW3965, T0901317, or Bexarotene at 1 μM for 56 hours, after which 5×10^4 cells were seeded in a 24-well plate in the presence of each drug and allowed to attach for 16 hours prior to starting the assay. HUVEC cells were serum-starved overnight in EGM-2 media containing 0.2% FBS. The following day, 1×10^5 HUVEC cells were seeded into a 3.0 μm HTS Fluoroblock trans-well migration insert (351151, BD Falcon, San Jose, Calif.) fitted into each well containing cancer cells at the bottom. The HUVEC cells were allowed to migrate towards the cancer cells for 20 hours at 37° C., after which the inserts were processed as previously described (Pencheva et al., 2012). For ApoE antibody neutralization experiments, 40 μg/mL 1D7 anti-ApoE blocking antibody (Heart Institute, University of Ottawa, Ottawa, Canada) or 40 μg/mL anti-IgG control antibody (AB-108-C, R&D Systems, Minneapolis, Minn.) was added to each trans-well insert at the start of the assay.
Subsequently, 5×10^4 cancer cells were seeded into 24-well plates in the presence of each drug or DMSO and allowed to attach for 16 hours prior to starting the assay. Human umbilical vein endothelial cells (HUVEC cells) were serum-starved in 0.2% FBS-containing media overnight. The following day, 1×10^5 HUVEC cells were seeded into a 3.0 μm HTS Fluoroblock insert (351151, BD Falcon) fitted into each well containing the cancer cells at the bottom. The HUVEC cells were allowed to migrate towards the cancer cells for 20 hours, after which the inserts were washed in PBS, fixed in 4% PFA, labeled with DAPI, and mounted on slides. The basal side of each insert was imaged using an inverted fluorescence microscope (Zeiss Axiovert 40 CFL) at 5× magnification, and the number of DAPI-positive cells was quantified using ImageJ.

melanoma cells = assay: cell proliferation and viability assay; format: cell-based, human; conditions: for cell proliferation or cell viability rates: MeWo, HT-144, SK-Mel-334.2, 1 μM, 5 days
Protocol: To determine the effects of miR-199a or miR-1908 over-expression and combinatorial LNA-induced miRNA inhibition on cell proliferation, 2.5×10^4 cells were seeded in triplicate in 6-well plates, and viable cells were counted after 5 days. […] Viable cells were counted after 8, 24, 48, 72, and 120 hours.
After 5 days, the number of viable and dead cells was counted using the trypan blue dye (72-57-1, Sigma-Aldrich), which selectively labels dead cells.

[3] = parental MeWo cells pre-treated for 48 hours

Compound | ability of melanoma cells to invade through matrigel [1] | ability of melanoma cells to recruit endothelial cells [2] | cell proliferation or cell viability rates (melanoma cells) | tumor cell invasion [1, 3] | endothelial recruitment [2, 3] | invasion by metastatic LM2 cells ([1]; 100 μM added to cell media) | endothelial recruitment by metastatic LM2 cells ([2]; 100 μM added to cell media) | ability of pre-treated endothelial cells to migrate towards highly metastatic cancer cells ([2]; endothelial cells pre-incubated 100 μM, 24 hours, LM2 cells) | melanoma cell or endothelial cell in vitro proliferation (melanoma cells; 100 μM)
O=S(=O)(c1ccccc1)N(CC(F)(F)F)c1ccc(C(O)(C(F)(F)F)C(F)(F)F)cc1 [T0901317 1] | consistently suppressed | consistently suppressed | did not affect | – | – | – | – | – | –
O=C(O)Cc1cccc(OCCCN(Cc2cccc(C(F)(F)F)c2Cl)CC(c2ccccc2)c2ccccc2)c1 [GW3965 2, 3-[3-[N-(2-Chloro-3-trifluoromethylbenzyl)-(2,2-diphenylethyl)amino]propyloxy] phenylacetic acid hydrochloride] | consistently suppressed | consistently suppressed | did not affect | decreased | decreased | – | – | – | –
recombinant ApoE3: recombinant human ApoE3 (4696, BioVision) | – | – | – | – | – | significantly suppressed | significantly suppressed | significantly reduced | did not affect
